In US20250171457A1, “NITROGEN-CONTAINING HETEROCYCLIC COMPOUND HAVING NRF2 ACTIVATION EFFECT” (CHUGAI SEIYAKU KABUSHIKI KAISHA, priority 2022, published 2025):

tested on: Nrf2 transcriptional activity (pARE-Luc reporter) in HepG2 cells; assay: In vitro Nrf2 transcriptional activity measurement by ARE-dependent reporter assay in HepG2 cell; type: cell-based, human; settings: Homo sapiens; HepG2 cells transfected with pARE-Luc, 4 hours at 37° C.; luciferase activity of Example 1-54 or Example 17-23 at 3.75 μM defined as 100%
Summary of the method: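 Luminescence readout (Bright-Glo) after 4 h, 37° C compound exposure of HepG2 cells carrying the ARE-luciferase vector pGL4.37. Each well converted to % response versus reference compound at 3.75 μM, and EC50 derived from dose-response curves.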

Row | Structure (SMILES) | EC50
1 | O=C(O)c1cc(F)c(-c2cccc3c2OCN(C(=O)c2c(Cl)cc(N4CC(N5CC(OC(F)F)C5)C4)cc2Cl)C3)cc1N1C2CCC1COC2 [Compound 11-4, 4-[3-[2,6-Dichloro-4-[3-[3-(difluoromethoxy)azetidin-1-yl]azetidin-1-yl]benzoyl]-2,4-dihydro-1,3-benzoxazin-8-yl]-5-fluoro-2-(3-oxa-8-azabicyclo[3.2.1]octan-8-yl)benzoic acid] | 2 nM
2 | COC1CN(C2(C)CN(c3cc(Cl)c(C(=O)N4COc5c(cccc5-c5cc(N6C7CCC6COC7)c(C(=O)O)cc5F)C4)c(Cl)c3)C2)C1 [Compound 11-5, 4-[3-[2,6-Dichloro-4-[3-(3-methoxyazetidin-1-yl)-3-methylazetidin-1-yl]benzoyl]-2,4-dihydro-1,3-benzoxazin-8-yl]-5-fluoro-2-(3-oxa-8-azabicyclo[3.2.1]octan-8-yl)benzoic acid] | 2 nM
3 | CC1(N2CCOCC2)CN(c2cc(Cl)c(C(=O)N3COc4c(cccc4-c4cc(N5C6CCC5COC6)c(C(=O)O)cc4F)C3)c(Cl)c2)C1 [Compound 11-6, 4-[3-[2,6-Dichloro-4-(3-methyl-3-morpholin-4-ylazetidin-1-yl)benzoyl]-2,4-dihydro-1,3-benzoxazin-8-yl]-5-fluoro-2-(3-oxa-8-azabicyclo[3.2.1]octan-8-yl)benzoic acid] | 2.4 nM
4 | O=C(O)c1cc(F)c(-c2cccc3c2OCN(C(=O)c2c(Cl)cc(N4CC(N5CC(OC(F)(F)F)C5)C4)cc2Cl)C3)cc1N1C2CCC1COC2 [Compound 11-7, 4-[3-[2,6-Dichloro-4-[3-[3-(trifluoromethoxy)azetidin-1-yl]azetidin-1-yl]benzoyl]-2,4-dihydro-1,3-benzoxazin-8-yl]-5-fluoro-2-(3-oxa-8-azabicyclo [3.2.1]octan-8-yl)benzoic acid] | 5.2 nM
5 | O=C(O)c1cc(F)c(-c2cccc3c2OCN(C(=O)c2c(Cl)cc(N4CC(N5CC(F)(F)C5)C4)cc2Cl)C3)cc1N1C2CCC1COC2 [Compound 11-8, 4-[3-[2,6-Dichloro-4-[3-(3,3-difluoroazetidin-1-yl)azetidin-1-yl]benzoyl]-2,4-dihydro-1,3-benzoxazin-8-yl]-5-fluoro-2-(3-oxa-8-azabicyclo[3.2.1]octan-8-yl)benzoic acid] | 3.1 nM
6 | O=C(O)c1cc(F)c(-c2cccc3c2OCN(C(=O)c2c(Cl)cc(N4CC(N5CC(F)C5)C4)cc2Cl)C3)cc1N1C2CCC1COC2 [Compound 11-9, 4-[3-[2,6-Dichloro-4-[3-(3-fluoroazetidin-1-yl)azetidin-1-yl]benzoyl]-2,4-dihydro-1,3-benzoxazin-8-yl]-5-fluoro-2-(3-oxa-8-azabicyclo[3.2.1]octan-8-yl)benzoic acid] | 2.7 nM
7 | O=C(O)c1cc(F)c(-c2cccc3c2OCN(C(=O)c2c(Cl)cc(N4CC5(CC(OC6CC6)C5)C4)cc2Cl)C3)cc1N1C2CCC1COC2 [Compound 11-10, 4-[3-[2,6-Dichloro-4-(6-cyclopropyloxy-2-azaspiro[3.3]heptan-2-yl)benzoyl]-2,4-dihydro-1,3-benzoxazin-8-yl]-5-fluoro-2-(3-oxa-8-azabicyclo[3.2.1]octan-8-yl)benzoic acid] | 3.8 nM
8 | CN(Cc1ccon1)c1cc(-c2cccc3c2OCN(C(=O)c2c(Cl)cc(-c4cnn(C)c4)cc2Cl)C3)c(F)cc1C(=O)O [Compound 12-1, 4-[3-[2,6-Dichloro-4-(1-methylpyrazol-4-yl)benzoyl]-2,4-dihydro-1,3-benzoxazin-8-yl]-5-fluoro-2-[methyl(1,2-oxazol-3-ylmethyl)amino] benzoic acid] | 11 nM
9 | Cn1cc(-c2cc(Cl)c(C(=O)N3COc4c(cccc4-c4cc(N5CC6CCC(C5)O6)c(C(=O)O)cc4F)C3)c(Cl)c2)cn1 [Compound 12-2, 4-[3-[2,6-Dichloro-4-(1-methylpyrazol-4-yl)benzoyl]-2,4-dihydro-1,3-benzoxazin-8-yl]-5-fluoro-2-(8-oxa-3-azabicyclo[3.2.1]octan-3-yl)benzoic acid] | 2.6 nM
10 | CO[C@H]1CN(c2cc(-c3cccc4c3OCN(C(=O)c3c(Cl)cc(-c5cnn(C)c5)cc3Cl)C4)c(F)cc2C(=O)O)[C@H]1C [Compound 12-3, 4-[3-[2,6-Dichloro-4-(1-methylpyrazol-4-yl)benzoyl]-2,4-dihydro-1,3-benzoxazin-8-yl]-5-fluoro-2-[(2S,3S)-3-methoxy-2-methylazetidin-1-yl]benzoic acid] | 6 nM
11 | CN(c1cc(-c2cccc3c2OCN(C(=O)c2c(Cl)cc(-c4cnn(C)c4)cc2Cl)C3)c(F)cc1C(=O)O)C1COC1 [Compound 12-4, 4-[3-[2,6-Dichloro-4-(1-methylpyrazol-4-yl)benzoyl]-2,4-dihydro-1,3-benzoxazin-8-yl]-5-fluoro-2-[methyl(oxetan-3-yl)amino]benzoic acid] | 15 nM
12 | Cn1cc(-c2cc(Cl)c(C(=O)N3COc4c(cccc4-c4cc(N5C6CCC5COC6)c(C(=O)O)cc4F)C3)c(Cl)c2)cn1 [Compound 13-1, 4-[3-[2,6-Dichloro-4-(1-methylpyrazol-4-yl)benzoyl]-2,4-dihydro-1,3-benzoxazin-8-yl]-5-fluoro-2-(3-oxa-8-azabicyclo[3.2.1]octan-8-yl)benzoic acid] | 7.1 nM
13 | Cn1cc(-c2cc(Cl)c(C(=O)N3Cc4cccc(-c5ccc(C(=O)O)c(N6CCOCC6)c5)c4CN3)c(Cl)c2)cn1 [Compound 13-2, 4-[2-[2,6-Dichloro-4-(1-methylpyrazol-4-yl)benzoyl]-3,4-dihydro-1H-phthalazin-5-yl]-2-morpholin-4-ylbenzoic acid] | 18 nM

The remaining lines, values ahead:

Row | EC50 | Structure (SMILES)
14 | 5.3 nM | Cc1c(F)c(-c2cccc3c2OCN(C(=O)c2c(Cl)cc(-c4cnn(C)c4)cc2Cl)C3)cc(N2CCOCC2)c1C(=O)O [Compound 13-3, 4-[3-[2,6-Dichloro-4-(1-methylpyrazol-4-yl)benzoyl]-2,4-dihydro-1,3-benzoxazin-8-yl]-3-fluoro-2-methyl-6-morpholin-4-ylbenzoic acid]
15 | 24 nM | Cn1cc(-c2cc(Cl)c(C(=O)N3COc4c(cccc4-c4c(F)cc(C(=O)O)c(N5CCOCC5)c4F)C3)c(Cl)c2)cn1 [Compound 13-4, 4-[3-[2,6-Dichloro-4-(1-methylpyrazol-4-yl)benzoyl]-2,4-dihydro-1,3-benzoxazin-8-yl]-3,5-difluoro-2-morpholin-4-ylbenzoic acid]
16 | 16 nM | Cn1cc(-c2cc(Cl)c(C(=O)N3COc4c(cccc4-c4ccc(C(=O)O)c(N5CCOCC5)c4F)C3)c(Cl)c2)cn1 [Compound 13-5, 4-[3-[2,6-Dichloro-4-(1-methylpyrazol-4-yl)benzoyl]-2,4-dihydro-1,3-benzoxazin-8-yl]-3-fluoro-2-morpholin-4-ylbenzoic acid]
17 | 7.5 nM | Cn1ncc2c(Cl)c(C(=O)N3COc4c(cccc4-c4ccc(C(=O)O)c(N5CCOCC5)c4)C3)ccc21 [Compound 13-6, 4-[3-(4-Chloro-1-methylindazole-5-carbonyl)-2,4-dihydro-1,3-benzoxazin-8-yl]-2-morpholin-4-ylbenzoic acid]
18 | 6.7 nM | COc1cc(Cl)c(C(=O)N2COc3c(cccc3-c3cc(N4CCOCC4)c(C(=O)O)cc3F)C2)cc1F [Compound 13-7, 4-[3-(2-Chloro-5-fluoro-4-methoxybenzoyl)-2,4-dihydro-1,3-benzoxazin-8-yl]-5-fluoro-2-morpholin-4-ylbenzoic acid]
19 | 5.4 nM | Cn1cc(-c2cc(Cl)c(C(=O)N3COc4c(ccc(F)c4-c4cc(N5CCOCC5)c(C(=O)O)cc4F)C3)c(Cl)c2)cn1 [Compound 13-8, 4-[3-[2,6-Dichloro-4-(1-methylpyrazol-4-yl)benzoyl]-7-fluoro-2,4-dihydro-1,3-benzoxazin-8-yl]-5-fluoro-2-morpholin-4-ylbenzoic acid]
20 | 5.2 nM | Cn1cc(-c2cc(Cl)c(C(=O)N3COc4c(ccc(F)c4-c4ccc(C(=O)O)c(N5CCOCC5)c4)C3)c(Cl)c2)cn1 [Compound 13-9, 4-[3-[2,6-Dichloro-4-(1-methylpyrazol-4-yl)benzoyl]-7-fluoro-2,4-dihydro-1,3-benzoxazin-8-yl]-2-morpholin-4-ylbenzoic acid]
21 | 17 nM | Cn1cc(-c2cc(Cl)c(C(=O)N3COc4c(cccc4-c4cc(N5CCOCC5)c(C(=O)O)cc4F)C3)cn2)cn1 [Compound 13-10, 4-[3-[4-Chloro-6-(1-methylpyrazol-4-yl)pyridine-3-carbonyl]-2,4-dihydro-1,3-benzoxazin-8-yl]-5-fluoro-2-morpholin-4-ylbenzoic acid]
22 | 7.5 nM | Cn1ccc2cc(C(=O)N3COc4c(cccc4-c4cc(N5CCOCC5)c(C(=O)O)cc4F)C3)c(Cl)cc21 [Compound 13-11, 4-[3-(6-Chloro-1-methylindole-5-carbonyl)-2,4-dihydro-1,3-benzoxazin-8-yl]-5-fluoro-2-morpholin-4-ylbenzoic acid]
23 | 17 nM | Cn1ccc2cc(Cl)c(C(=O)N3COc4c(cccc4-c4cc(N5CCOCC5)c(C(=O)O)cc4F)C3)cc21 [Compound 13-12, 4-[3-(5-Chloro-1-methylindole-6-carbonyl)-2,4-dihydro-1,3-benzoxazin-8-yl]-5-fluoro-2-morpholin-4-ylbenzoic acid]
24 | 7.1 nM | Cn1ccc2c(C(=O)N3COc4c(cccc4-c4cc(N5CCOCC5)c(C(=O)O)cc4F)C3)c(Cl)cnc21 [Compound 13-13, 4-[3-(5-Chloro-1-methylpyrrolo[2,3-b]pyridine-4-carbonyl)-2,4-dihydro-1,3-benzoxazin-8-yl]-5-fluoro-2-morpholin-4-ylbenzoic acid]
25 | 13 nM | O=C(O)c1cc(F)c(-c2cccc3c2OCN(C(=O)c2c(Cl)ccc4cc(Cl)cnc24)C3)cc1N1CCOCC1 [Compound 13-14, 4-[3-(3,7-Dichloroquinoline-8-carbonyl)-2,4-dihydro-1,3-benzoxazin-8-yl]-5-fluoro-2-morpholin-4-ylbenzoic acid]
26 | 10 nM | Cn1ncc2cc(Cl)c(C(=O)N3COc4c(cccc4-c4cc(N5CCOCC5)c(C(=O)O)cc4F)C3)cc21 [Compound 13-15, 4-[3-(5-Chloro-1-methylindazole-6-carbonyl)-2,4-dihydro-1,3-benzoxazin-8-yl]-5-fluoro-2-morpholin-4-ylbenzoic acid]
